Tests used:
Assay in all cases: cryo-EM structure
Type in all cases: binding
Lhca1‐Lhca4 = molecular target: T1, Lhca1‐Lhca4 (Arabidopsis thaliana, UniProt P27521+Q01667); details: PSI-LHCI supercomplex, 3.13 A; Lhca1/Lhca4 interface near Chl a615, hydrogen bond to Lhca1 Ser210
T1 construct: heterodimer within native PSI-LHCI supercomplex purified from leaves; ligand at the subunit interface
T1 sequence (Q01667 36-241): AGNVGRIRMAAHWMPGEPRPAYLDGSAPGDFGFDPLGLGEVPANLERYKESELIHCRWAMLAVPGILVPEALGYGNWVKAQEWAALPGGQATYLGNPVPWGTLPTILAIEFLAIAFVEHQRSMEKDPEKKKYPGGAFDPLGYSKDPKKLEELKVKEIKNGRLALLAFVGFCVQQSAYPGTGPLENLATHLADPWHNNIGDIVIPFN
T1 sequence (P27521 53-251): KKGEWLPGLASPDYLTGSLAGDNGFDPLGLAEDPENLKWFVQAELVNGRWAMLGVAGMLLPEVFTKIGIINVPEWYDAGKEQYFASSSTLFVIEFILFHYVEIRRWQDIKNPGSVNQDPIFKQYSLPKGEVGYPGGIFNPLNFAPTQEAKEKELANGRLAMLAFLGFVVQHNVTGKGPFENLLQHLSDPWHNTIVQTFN

Lhca2 = molecular target: T2, Lhca2 (Arabidopsis thaliana, UniProt Q9SYW8); details: PSI-LHCI supercomplex, 3.13 A; site L2
T2 construct: native LHCI antenna subunit within PSI-LHCI supercomplex purified from leaves (beta-DM, sucrose gradient)
T2 sequence (Q9SYW8 44-257): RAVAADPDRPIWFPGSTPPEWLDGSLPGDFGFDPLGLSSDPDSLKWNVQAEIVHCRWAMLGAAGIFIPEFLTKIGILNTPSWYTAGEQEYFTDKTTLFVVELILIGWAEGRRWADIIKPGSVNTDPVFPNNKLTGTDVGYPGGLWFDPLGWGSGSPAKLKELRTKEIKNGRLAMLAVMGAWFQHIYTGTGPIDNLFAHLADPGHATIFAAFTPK

Lhca1 = molecular target: T3, Lhca1 (Arabidopsis thaliana, UniProt Q01667); details: PSI-LHCI supercomplex, 3.13 A; site L2
T3 construct: native LHCI antenna subunit within PSI-LHCI supercomplex purified from leaves (beta-DM, sucrose gradient)
T3 sequence (Q01667 36-241): T1 sequence (Q01667 36-241)

CC1=C[C@H](O)CC(C)(C)[C@H]1/C=C/C(C)=C/C=C/C(C)=C/C=C/C=C(C)/C=C/C=C(C)/C=C/C1=C(C)C[C@@H](O)CC1(C)C [lutein]
cryo-EM structure (Lhca1‐Lhca4): The Lut was situated at the interface between Lhca1 and Lhca4

CC(/C=C/C=C(C)/C=C/[C@@]12O[C@]1(C)C[C@@H](O)CC2(C)C)=C\C=C\C=C(C)\C=C\C=C(C)\C=C\[C@@]12O[C@]1(C)C[C@@H](O)CC2(C)C [violaxanthin]
cryo-EM structure (Lhca2): significantly higher for Lhca3 and Lhca4 than for Lhca1 and Lhca2
cryo-EM structure (Lhca1): Chl a603–Vio L2 coupling were significantly higher for Lhca3 and Lhca4 than for Lhca1

Source: publication PMC12589708, “Structural determinants for red‐shifted absorption in higher‐plants Photosystem I” (The New Phytologist, 2025)
